{"source": "ChEMBL document CHEMBL1201862", "about": "“PubChem BioAssay data set” (2004)", "key": {"[1]": {"assay": "blockers of SFLLRN-triggered platelet ATP secretion – cell-based, human platelets, luminescence, dry powder, dose response (AID 493100)", "format": "functional"}, "[2]": {"assay": "PAR1 agonist-induced platelet activation inhibition – cell-based, fluorescence, flow cytometry, human platelets, dose response (AID 2511)", "format": "functional"}, "[3]": {"assay": "Luminescence Cell-Based Dose Response Follow up to Identify Inhibitors of Platelet Dense Granule Release. [Related pubchem assays (depositor defined):AID1663, AID1678, AID2398]", "format": "functional"}, "[4]": {"assay": "Luminescence Cell-Based Dose Confirmation HTS to Identify Inhibitors of Platelet Dense Granule Release. [Related pubchem assays: 1663 (Primary HTS), 1678 (Summary of Project)]", "format": "functional"}, "[5]": {"target": "Luciferin 4-monooxygenase (Photinus pyralis, UniProt P08659)", "sequence (P08659 whole entry)": "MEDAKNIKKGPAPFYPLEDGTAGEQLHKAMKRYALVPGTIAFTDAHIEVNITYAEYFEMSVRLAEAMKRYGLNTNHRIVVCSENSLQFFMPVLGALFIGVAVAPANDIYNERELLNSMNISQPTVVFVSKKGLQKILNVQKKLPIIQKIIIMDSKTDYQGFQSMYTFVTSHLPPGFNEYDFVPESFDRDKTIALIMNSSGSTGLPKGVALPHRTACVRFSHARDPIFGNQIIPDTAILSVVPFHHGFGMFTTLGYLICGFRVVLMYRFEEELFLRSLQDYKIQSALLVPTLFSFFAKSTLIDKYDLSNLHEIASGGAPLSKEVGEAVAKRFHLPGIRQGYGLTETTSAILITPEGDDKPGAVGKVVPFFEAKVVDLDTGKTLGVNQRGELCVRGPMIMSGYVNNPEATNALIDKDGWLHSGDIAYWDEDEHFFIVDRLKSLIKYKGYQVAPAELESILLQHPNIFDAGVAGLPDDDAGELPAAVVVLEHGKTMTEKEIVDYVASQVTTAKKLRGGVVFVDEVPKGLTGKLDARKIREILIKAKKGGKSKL", "assay": "inhibition of purified Photinus pyralis luciferase – biochemical, luminescence, dose response (AID 1891)"}, "Candida albicans [6]": {"test_system": "Candida albicans", "assay": "antifungal activity against resistant Candida strain – CaCi-8, fluconazole, Alamar Blue, dry powder, dose response (AID 488807)", "format": "functional, organism-based"}, "Escherichia coli [7]": {"test_system": "Escherichia coli", "assay": "microbe, parasite or virus in culture"}, "Escherichia coli [8]": {"test_system": "Escherichia coli", "assay": "microbe, parasite or virus in culture", "remark": "listed apart in the source"}, "[9]": {"target": "Delta-type opioid receptor (Homo sapiens, UniProt P41143)", "sequence (P41143 whole entry)": "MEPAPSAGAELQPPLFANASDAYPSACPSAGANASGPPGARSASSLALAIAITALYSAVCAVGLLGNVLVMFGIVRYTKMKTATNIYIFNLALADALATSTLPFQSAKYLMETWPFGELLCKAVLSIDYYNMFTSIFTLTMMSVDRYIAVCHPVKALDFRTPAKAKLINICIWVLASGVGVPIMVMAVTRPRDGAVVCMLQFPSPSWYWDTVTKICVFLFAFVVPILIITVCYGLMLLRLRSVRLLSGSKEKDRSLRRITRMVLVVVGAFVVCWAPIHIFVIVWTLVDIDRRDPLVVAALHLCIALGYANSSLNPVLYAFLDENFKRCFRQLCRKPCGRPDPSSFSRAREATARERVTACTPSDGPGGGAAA", "assay": "Counterscreen for agonists of heterodimerization of the mu 1 (OPRM1) and delta 1 (OPRD1) opioid receptors: Luminescence-based cell-based high throughput dose response assay to identify agonists of OPRD1 homodimerization. [Related pubchem assays (depositor defined):AID504326, AID504355, AID504692, AID504904, AID504905]", "format": "functional"}, "Mu-type opioid receptor": {"target": "Mu-type opioid receptor (Homo sapiens, UniProt P35372)", "sequence (P35372 whole entry)": "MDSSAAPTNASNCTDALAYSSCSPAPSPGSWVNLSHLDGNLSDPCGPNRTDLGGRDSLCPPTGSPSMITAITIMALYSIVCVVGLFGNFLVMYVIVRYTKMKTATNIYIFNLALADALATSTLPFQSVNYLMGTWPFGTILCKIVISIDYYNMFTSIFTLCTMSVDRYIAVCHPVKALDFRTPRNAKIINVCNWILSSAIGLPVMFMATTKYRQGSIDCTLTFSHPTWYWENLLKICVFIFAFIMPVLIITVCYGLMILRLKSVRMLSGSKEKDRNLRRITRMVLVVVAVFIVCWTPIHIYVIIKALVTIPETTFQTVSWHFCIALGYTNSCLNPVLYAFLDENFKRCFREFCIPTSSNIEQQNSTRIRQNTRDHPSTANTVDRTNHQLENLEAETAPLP", "assay": "Counterscreen for agonists of heterodimerization of the mu 1 (OPRM1) and delta 1 (OPRD1) opioid receptors: Luminescence-based cell-based high throughput dose response assay to identify agonists of OPRM1 homodimerization.", "format": "functional"}, "[10]": {"target": "5-hydroxytryptamine receptor 5A (Homo sapiens, UniProt P47898)", "sequence (P47898 whole entry)": "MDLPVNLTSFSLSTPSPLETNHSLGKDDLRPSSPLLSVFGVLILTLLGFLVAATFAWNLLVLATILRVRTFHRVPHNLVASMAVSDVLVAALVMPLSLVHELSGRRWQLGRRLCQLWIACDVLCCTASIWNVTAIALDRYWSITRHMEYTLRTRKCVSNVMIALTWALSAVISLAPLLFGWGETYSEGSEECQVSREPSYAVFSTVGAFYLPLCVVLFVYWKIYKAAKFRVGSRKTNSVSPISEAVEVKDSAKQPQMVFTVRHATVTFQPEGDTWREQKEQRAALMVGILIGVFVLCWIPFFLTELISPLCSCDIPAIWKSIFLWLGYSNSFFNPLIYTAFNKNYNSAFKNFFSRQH", "assay": "Counterscreen for agonists of OPRM1-OPRD1 heterodimerization: luminescence-based cell-based high throughput dose response assay to identify agonists of 5-hydroxytryptamine (serotonin) 5A receptor (HTR5A). [Related pubchem assays (depositor defined):AID504326, AID504355, AID504692, AID504904, AID504905]", "format": "functional"}, "Candida albicans [11]": {"test_system": "Candida albicans", "assay": "single-agent antifungal toxicity in C. albicans – CaCi-2 strain, Alamar Blue, dry powder, set 2, counter-screen for antifungal drug resistance project, dose response (AID 488893)", "format": "functional, organism-based"}, "Candida albicans [12]": {"test_system": "Candida albicans", "assay": "Candida growth reduction in fluconazole presence – CaCi-2 strain, Alamar Blue, dry powder, set 2, antifungal resistance reversal project, dose response (AID 488930)", "format": "functional, organism-based"}, "Candida albicans [13]": {"test_system": "Candida albicans", "assay": "resistant Candida growth with fluconazole co-treatment – CaCi-8 strain, Alamar Blue, dry powder, set 2, dose response (AID 488909)", "format": "functional, organism-based"}, "Candida albicans [14]": {"test_system": "Candida albicans", "assay": "fluconazole-resistant Candida strain growth inhibitors – CaCi-8 strain, dry powder, set 4, dose response (AID 488950)", "format": "functional, organism-based"}, "Candida albicans [15]": {"test_system": "Candida albicans", "assay": "C. albicans growth inhibition with fluconazole – CaCi-2 strain, Alamar Blue, dry powder, set 4, dose response (AID 488943)", "format": "functional, organism-based"}, "A-375 [16]": {"test_system": "A-375", "assay": "proliferation inhibition in MITF-low A375 cells – cell-based, cherry-pick samples, set 2, counter-screen for MITF modulator project, dose response (AID 540335)", "format": "functional", "conditions": "Homo sapiens"}, "[17]": {"assay": "reduced cellular PGC1a acetyl-lysine signal – cell-based, cherry-picked samples, dose response (AID 720514);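 further: potency may reflect raised or lowered acetylation signal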", "format": "functional"}, "A-375 [18]": {"test_system": "A-375", "assay": "MITF: Counter assay: A375 proliferation Measured in Cell-Based System Using Plate Reader - 2084-03_Inhibitor_Dose_DryPowder_Activity. [Related pubchem assays (depositor defined):AID488944]", "format": "functional", "conditions": "Homo sapiens"}, "[19]": {"assay": "rise of 2N DNA cells, HeLa – IC50, dose response (AID 1117349)", "format": "functional, cell-based"}, "[20]": {"target": "Glucose-6-phosphate 1-dehydrogenase (Homo sapiens, UniProt P11413)", "sequence (P11413 whole entry)": "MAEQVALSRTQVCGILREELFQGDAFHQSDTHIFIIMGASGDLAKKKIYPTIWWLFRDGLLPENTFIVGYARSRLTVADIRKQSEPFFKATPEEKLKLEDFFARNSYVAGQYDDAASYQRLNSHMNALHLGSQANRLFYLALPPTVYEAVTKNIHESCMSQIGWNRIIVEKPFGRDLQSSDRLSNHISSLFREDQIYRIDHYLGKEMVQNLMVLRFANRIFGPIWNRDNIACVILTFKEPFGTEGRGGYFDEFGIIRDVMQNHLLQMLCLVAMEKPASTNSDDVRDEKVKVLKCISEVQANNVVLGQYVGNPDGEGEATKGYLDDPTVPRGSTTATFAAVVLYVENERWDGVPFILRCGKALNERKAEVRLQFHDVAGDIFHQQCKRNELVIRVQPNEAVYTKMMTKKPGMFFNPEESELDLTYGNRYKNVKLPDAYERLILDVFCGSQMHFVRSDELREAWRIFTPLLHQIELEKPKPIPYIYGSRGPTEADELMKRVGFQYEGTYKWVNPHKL", "assay": "inhibition of Homo sapiens G6PD, dose series – biochemical, fluorescence, selectivity assay for P. falciparum G6PD inhibitor project, dose response (AID 504792)", "format": "functional"}, "[21]": {"assay": "rise of 4N DNA cells, HeLa – IC50, dose response (AID 1117351)", "format": "functional, cell-based"}}, "note": "Calls of active or inactive are those of the source."}
{"molecule": "Cc1ccc(-n2c(N)c(C#N)c(-c3ccc(Cl)cc3)c(C#N)c2=O)cc1", "values": [{"measurement": "AC50", "setting": "[1]", "value": "14.3 µM (active)"}, {"measurement": "EC50", "setting": "[2]", "value": "< 3 µM (active)"}, {"measurement": "EC50", "setting": "[3]", "value": "0.623 µM (active)"}, {"measurement": "EC50", "setting": "[4]", "value": "4.94 µM (active)"}, {"measurement": "EC50", "setting": "[5]", "value": "> 112 µM (not active)"}]}
{"molecule": "COC(=O)Cn1nc(-c2ccccc2)c2cc(Cl)ccc21", "values": [{"measurement": "AC50", "setting": "Candida albicans [6]", "value": "9.53 µM (active)"}]}
{"molecule": "O=S(=O)(c1ccccc1)c1cnc(-c2cccnc2)nc1-c1ccc(Cl)cc1Cl", "values": [{"measurement": "AC50", "setting": "Escherichia coli [7]", "value": "224 µM (active)"}, {"measurement": "AC50", "setting": "Escherichia coli [8]", "value": "150 µM (active)"}]}
{"molecule": "Cc1ccc2cc(C(c3nnnn3Cc3ccccc3)N3CCc4ccccc43)c(O)nc2c1", "note": "(configuration not stated)", "values": [{"measurement": "EC50", "setting": "[9]", "value": "> 92.5 µM (inactive)"}, {"measurement": "EC50", "setting": "Mu-type opioid receptor", "value": "> 92.5 µM (inactive)"}, {"measurement": "EC50", "setting": "[10]", "value": "> 92.5 µM (inactive)"}]}
{"molecule": "O=C(c1ccc(F)cc1)N1CCN(c2ccnc3cc(Cl)ccc23)CC1", "values": [{"measurement": "AC50", "setting": "Candida albicans [11]", "value": "> 260 µM (inactive)"}, {"measurement": "AC50", "setting": "Candida albicans [12]", "value": "0.57 µM (active)"}, {"measurement": "AC50", "setting": "Candida albicans [13]", "value": "3.2 µM (active)"}, {"measurement": "AC50", "setting": "Candida albicans [14]", "value": "1.19 µM (active)"}, {"measurement": "AC50", "setting": "Candida albicans [15]", "value": "1.33 µM (active)"}]}
{"molecule": "CCCCC1C(=O)N(c2ccccc2)N(c2ccc(O)cc2)C1=O", "note": "(configuration not stated) [OXYPHENBUTAZONE ANHYDROUS]", "values": [{"measurement": "AC50", "setting": "A-375 [16]", "value": "> 35 µM (active)"}, {"measurement": "AC50", "setting": "[17]", "value": "9.85 µM (active)"}, {"measurement": "AC50", "setting": "A-375 [18]", "value": "> 35 µM (active)"}, {"measurement": "IC50", "setting": "[19]", "value": "> 10 µM (inactive)"}, {"measurement": "IC50", "setting": "[20]", "value": "> 80 µM (inactive)"}, {"measurement": "IC50", "setting": "[21]", "value": "> 10 µM (inactive)"}]}
